# Data: US10017506B2, “ATX modulating agents” (BIOGEN MA INC., priority 2012, dated 2018)
# Target: T1, Human ATX protein (Homo sapiens, UniProt Q13822)
# T1 construct: made in house
# Experiment: ATX biochemical FRET assay with FS-3 substrate
# Settings: FRET substrate FS-3 2 μM, ATX 1.0 μg/mL, 30 minutes pre-incubation, 2 hours at room temperature; read-out: IC50
# In short: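 Enzyme at 1.0 μg/mL final, pre-incubated with compound (10-point, 3-fold series) for 30 min at RT in Tris pH 7.4 buffer with NaCl, KCl, CaCl2, MgCl2 and 1 mg/mL fatty-acid-free BSA. After FS-3 addition, 2 h at RT protected from light; fluorescence at 485/538 nm.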
row,IC50 [nM],Compound
1,≤ 100,"CC(c1ccc2ccc(O[C@H]3CC[C@@H](C(F)(F)F)CC3)c(C(F)(F)F)c2c1)N1CCC(C(=O)O)CC1 (stereo partly drawn) [Example 44, 1-(1-(8-(trifluoromethyl)-7-((cis-4-(trifluoromethyl)cyclohexyl)oxy)naphthalen-2-yl)ethyl)piperidine-4-carboxylic acid]"
2,≤ 250,"CCC(N[C@H]1CC[C@@H](C(=O)O)CC1)c1ccc2ccc(O[C@H]3CC[C@@H](C)CC3)c(C(F)(F)F)c2c1 (stereo partly drawn) [Example 146, cis-4-((1-(7-((cis-4-methylcyclohexyl)oxy)-8-(trifluoromethyl)naphthalen-2-yl)propyl)amino)cyclohexanecarboxylic acid]"
3,≤ 100,"CC(NC1CC(C(=O)O)C1(C)C)c1ccc2ccc(O[C@H]3CC[C@@H](C)CC3)c(C(F)(F)F)c2c1 (stereo partly drawn) [Example 82, 2,2-dimethyl-3-((1-(7-((cis-4-methylcyclohexyl)oxy)-8-(trifluoromethyl)naphthalen-2-yl)ethyl)amino)cyclobutanecarboxylic acid]"
4,≤ 100,"CC[C@H]1CC[C@@H](Oc2ccc3ccc(C(C)N[C@H]4CC[C@@H](C(=O)O)CC4)cc3c2C(F)(F)F)CC1 (stereo partly drawn) [Example 134, cis-4-((1-(7-((cis-4-ethylcyclohexyl)oxy)-8-(trifluoromethyl)naphthalen-2-yl)ethyl)amino)cyclohexanecarboxylic acid]"
5,≤ 500,"CC(N[C@H]1C[C@@H](C(=O)O)C1)c1ccc2ccc(O[C@H]3CC[C@@H](C)CC3)c(C(F)(F)F)c2c1 (stereo partly drawn) [Example 110, cis-3-((1-(7-((cis-4-methylcyclohexyl)oxy)-8-(trifluoromethyl)naphthalen-2-yl)ethyl)amino)cyclobutanecarboxylic acid]"
6,≤ 100,"CC[C@H]1CC[C@@H](Oc2ccc3ccc([C@@H](C)N[C@@H]4C[C@@H](C(=O)O)C4(C)C)cc3c2C(F)(F)F)CC1 [Example 117c, (1R,3R)-3-(((R)-1-(7-((cis-4-ethylcyclohexyl)oxy)-8-(trifluoromethyl)naphthalen-2-yl)ethyl)amino)-2,2-dimethylcyclobutanecarboxylic acid]"
7,≤ 100,"CC(N[C@@H]1C[C@H](C(=O)O)C1(C)C)c1ccc2ccc(O[C@H]3CC[C@@H](C)CC3)c(C(F)(F)F)c2c1 (stereo partly drawn) [Example 112, (1S,3R)-2,2-dimethyl-3-((1-(7-((cis-4-methylcyclohexyl)oxy)-8-(trifluoromethyl)naphthalen-2-yl)ethyl)amino)cyclobutanecarboxylic acid]"
8,≤ 100,CC[C@H]1CC[C@@H](Oc2ccc3ccc(C(C)N[C@H]4C[C@@H](C(=O)O)C4(C)C)cc3c2C(F)(F)F)CC1 (stereo partly drawn) [Example 116]

# Same assay, conditions: IC50, FRET substrate FS-3 2 μM, ATX 1.0 μg/mL, 30 minutes pre-incubation, 2 hours at room temperature
row,Compound,IC50 [nM]
1,"O=C(O)C1CC2CCC(C1)N2Cc1cc2c(C(F)(F)F)c(O[C@H]3CC[C@@H](C(F)(F)F)CC3)ccc2cc1F (stereo partly drawn) [Example 141, 8-((3-fluoro-8-(trifluoromethyl)-7-((cis-4-(trifluoromethyl)cyclohexyl)oxy)naphthalen-2-yl)methyl)-8-azabicyclo[3.2.1]octane-3-carboxylic acid]",≤ 100
2,"CC[C@H]1CC[C@@H](Oc2ccc3ccc(CN4C5CCC4CC(C(=O)O)C5)cc3c2C(F)(F)F)CC1 (stereo partly drawn) [Example 51, 8-((7-((cis-4-ethylcyclohexyl)oxy)-8-(trifluoromethyl)naphthalen-2-yl)methyl)-8-azabicyclo[3.2.1]octane-3-carboxylic acid]",≤ 100
3,"CC[C@H]1CC[C@@H](Oc2ccc3ccc([C@@H](C)N4C5CCC4CC(C(=O)O)C5)cc3c2C(F)(F)F)CC1 (stereo partly drawn) [Example 144b, 8-((R)-1-(7-((cis-4-ethylcyclohexyl)oxy)-8-(trifluoromethyl)naphthalen-2-yl)ethyl)-8-azabicyclo[3.2.1]octane-3-carboxylic acid]",≤ 100
4,"CC(c1ccc2ccc(O[C@H]3CC[C@@H](C(F)(F)F)CC3)c(C(F)(F)F)c2c1)N1C2CCC1CC(C(=O)O)C2 (stereo partly drawn) [Example 12, 8-{1-[7-(cis-4-trifluoromethyl-cyclohexyloxy)-8-trifluoromethyl-naphthalen-2-yl]-ethyl}-8-aza-bicyclo[3.2.1]octane-3-carboxylic acid]",≤ 100
5,"N#Cc1c(O[C@H]2CC[C@@H](C(F)(F)F)CC2)ccc2ccc(CN3C4CCC3CC(C(=O)O)C4)cc12 (stereo partly drawn) [Example 34, 8-((8-cyano-7-((cis-4-(trifluoromethyl)cyclohexyl)oxy)naphthalen-2-yl)methyl)-8-azabicyclo[3.2.1]octane-3-carboxylic acid]",≤ 250
6,"CCC(c1ccc2ccc(O[C@H]3CC[C@@H](C)CC3)c(C(F)(F)F)c2c1)N1C2CCCC1CC(C(=O)O)C2 (stereo partly drawn) [Example 104, 9-(1-(7-((cis-4-methylcyclohexyl)oxy)-8-(trifluoromethyl)naphthalen-2-yl)propyl)-9-azabicyclo[3.3.1]nonane-3-carboxylic acid]",≤ 250
7,"[2H]C([2H])([2H])[C@@H](c1ccc2ccc(O[C@H]3CC[C@@H](C(F)(F)F)CC3)c(C(F)(F)F)c2c1)N1C2CCC1CC(C(=O)O)C2 (stereo partly drawn) [Example 46, 8-((S)-1-(8-(trifluoromethyl)-7-((cis-4-(trifluoromethyl)cyclohexyl)oxy)naphthalen-2-yl)-2,2,2-trideuteroethyl)-8-azabicyclo[3.2.1]octane-3-carboxylic acid]",≤ 100
8,"C[C@H]1CC[C@@H](Oc2ccc3ccc(CN4C5CCCC4CC(C(=O)O)C5)cc3c2C(F)F)CC1 (stereo partly drawn) [Example 86, 9-((8-(difluoromethyl)-7-((cis-4-methylcyclohexyl)oxy)naphthalen-2-yl)methyl)-9-azabicyclo[3.3.1]nonane-3-carboxylic acid]",≤ 100
9,"CC[C@H]1CC[C@@H](Oc2ccc3ccc(C(C)N4C5CCC4CC(C(=O)O)C5)cc3c2C(F)(F)F)CC1 (stereo partly drawn) [Example 55, 8-(1-(7-((cis-4-ethylcyclohexyl)oxy)-8-(trifluoromethyl)naphthalen-2-yl)ethyl)-8-azabicyclo[3.2.1]octane-3-carboxylic acid]",≤ 100
10,"C[C@H]1CC[C@@H](Oc2ccc3ccc(CN4C5CCCC4CC(C(=O)O)C5)cc3c2C#N)CC1 (stereo partly drawn) [Example 98, 9-((8-cyano-7-((cis-4-methylcyclohexyl)oxy)naphthalen-2-yl)methyl)-9-azabicyclo[3.3.1]nonane-3-carboxylic acid]",≤ 100
11,"CC(c1ccc2ccc(O[C@H]3CC[C@@H](C(F)(F)F)CC3)c(C(F)F)c2c1)N1C2CCC1CC(C(=O)O)C2 (stereo partly drawn) [Example 42, 8-(1-(8-(difluoromethyl)-7-((cis-4-(trifluoromethyl)cyclohexyl)oxy)naphthalen-2-yl)ethyl)-8-azabicyclo[3.2.1]octane-3-carboxylic acid]",≤ 100
12,"CC[C@H]1CC[C@@H](Oc2ccc3ccc(C(C)N4C5CCCC4CC(C(=O)O)C5)cc3c2C#N)CC1 (stereo partly drawn) [Example 74, 9-(1-(8-cyano-7-((cis-4-ethylcyclohexyl)oxy)naphthalen-2-yl)ethyl)-9-azabicyclo[3.3.1]nonane-3-carboxylic acid]",≤ 100
13,"CC(c1ccc2ccc(O[C@H]3CC[C@@H](C(F)(F)F)CC3)c(C(F)(F)F)c2c1)N1C2CCCC1CC(C(=O)O)C2 (stereo partly drawn) [Example 10, 9-{1-[7-(cis-4-trifluoromethyl-cyclohexyloxy)-8-trifluoromethyl-naphthalen-2-yl]-ethyl}-9-aza-bicyclo[3.3.1]nonane-3-carboxylic acid]",≤ 100
